≈ marks a conversion by molar mass, not a printed value. Read-outs that look alike come from different tables or passages of the source.
How the values were obtained:
P. falciparum 3D7 [1] = system: P. falciparum 3D7; design: method as in ChEMBL (version 32), ref 29; conditions: ref ChEMBL (version 32), cited from earlier work
P. falciparum 3D7 [2] = experiment: P. falciparum 3D7 parasite growth, pLDH readout, 72 h incubation; type: cell-based; conditions: Plasmodium falciparum, P. falciparum 3D7, pLDH readout, read-out: 3D7 LDH (72 h) IC50
Method: Afterwards, the remaining compounds were evaluated for their attractiveness derived from the chemical diversity relative to existing antimalarial drugs (Table S2 / Supplementary file SMILES-Table S2.xls) and calculated using Tanimoto similarity based on 2D molecular fingerprints. At this stage the list of remaining compounds was expanded with additional compounds that fulfilled at least 3 of the DRC assays criteria. Compounds still commercially available for re-stock were purchased and retested in a different laboratory against P. falciparum 3D7 with a pLDF read-out, […]
(§1) and in human HepG2 cells. […]
(§2) in the parasite growth inhibition assay, and higher than 10 μM in the cell viability assay obtained in two distinct locations. […]

P. falciparum Dd2 = P. falciparum Dd2 parasite growth, pLDH readout, 72 h incubation; type: cell-based; conditions: Plasmodium falciparum, read-out: Dd2 LDH (72 h) IC50
Method: (§3) Here, this state of the art screening platform was applied to CQL (Figure 3). During solubilization and reformatting activities, 40 samples were identified with solubility issues and removed from the screening set, thereby leaving 5810 compounds (4623 scored + 1187 randomly selected). A primary screen was conducted at a single concentration (2 μM) against P. falciparum NF54 (nanoGlo readout over 72 h incubation). […] These compounds were then tested in five-point dose–response curve (DRC) assays, each of which provides key information to decide which compound(s) to progress (highlighted in blue). Five different assays were carried out, including three parasite growth assays over 72 h of incubation (P. falciparum NF54 in both nanoGlo and pLDH read-outs and P. falciparum Dd2 in pLDH read-out), one parasite growth assay over 12 h of incubation (P. falciparum NF54 in nanoGlo read-out) in order to evaluate the speed of action, and a cytotoxicity assay against human HepG2 cells over 72 h of incubation. Out of 36 screening active compounds (36 + 0) fulfilling all of the ideal criteria, 12 were deemed attractive in terms of chemical novelty and diversity for further progression and evaluation. This set of compounds was further complemented with others that passed at least three of the five DRC criteria, together with assessments of chemical novelty and diversity, which led to 33 selected compounds. Twenty-two compounds (those still available from commercial suppliers) were repurchased, and the compound efficacy was retested against P. falciparum 3D7 (pLDH readout over 72 h incubation) and human HepG2 cells over 72 h of incubation at a different testing center.
No unexpected or unusually high safety hazards were encountered.
(§4) The Medicines for Malaria Venture (MMV)’s P. falciparum asexual blood stage phenotypic screening platform was used to experimentally validate the selected compounds. Full details can be found in a recent publication.5 Briefly, the HTS cascade relies on a newly developed P. falciparum strain genetically modified to express a nano-luciferase reporter gene driven by the ef1α promoter. In addition to providing similar results compared to a fluorescence-based assay, this reporter provided a robust read-out for parasite replication with incubation times as short […]
(§5) The screening platform consists of a primary screening where the compounds were tested at a single concentration (2 μM) against the chloroquine and pyrimethamine sensitive P. falciparum strain NF54 using a nanoGlo detection reagent. Compounds that exceeded a Z-score threshold of -4 were screened a second time in this assay format in addition to an orthogonal assay (P. falciparum NF54, pLDH). Only the compounds inhibiting parasite growth by more than 30% were then tested in five dose-response curve (DRC) assays. These assays were designed to evaluate different aspects any future antimalarial drug has to fulfil: - sensitivity (P. falciparum NF54, nanoGlo and P. falciparum NF54, pLDH); - efficacy against resistant parasite strains (P. falciparum Dd2, pLDH); - low cellular toxicity (HepG2 cells). In addition, to evaluate their speed of action, […]

in vitro = type: cell-based; conditions: human
Method: as §3, with “center. […]” for “center.”
as §4, §5
versus 72 hours for the assays previously mentioned. […]
Compounds still commercially available for re-stock were purchased and retested in a different laboratory against P. falciparum 3D7 with a pLDF read-out, […]
as §1, §2

[3] = LogD at pH 7.4, miniaturised shake flask; type: physicochemical
Method: The LogD pH7.4 assay was performed using a miniaturised shake flask method. A solution of a pre-saturated mixture of 1-octanol and PBS (1:1, v/v) and the test compound (75 µM) was incubated at 25 °C with constant shaking (850 rpm) for 2 hours. After incubation the organic and aqueous phases were separated, and samples of each phase transferred to plate for dilution. The organic phase was diluted to 1000-fold and the aqueous phase was diluted 20-fold. The samples were quantitated using LC-MS/MS. The experiment was carried out in duplicate. Propranolol, amitriptyline and midazolam were used as reference standards. […]

[4] = Solubility in PBS pH 7.4, miniaturised shake flask; type: physicochemical; conditions: kinetic from dmso stock, 25 °C
Method: Solubility in phosphate buffered saline (PBS) pH7.4
The solubility assay was performed using a miniaturised shake flask method. A solution of phosphate buffered saline (PBS) and the test compound (200 µM) was incubated at 25 °C with constant shaking (600 rpm) for 2 hours. The samples were filtered using a multiscreen solubility filter plate. The filtrate was half diluted in acetonitrile. A five-point linearity curve was prepared in PBS:Acetonitrile (1:1, v/v) at 200, 150, 75, 25 and 2.5 µM. Blank, linearity and test samples (n = 2) were transferred to a UV readable plate and the plate was scanned for absorbance. Best […]
fit calibration curves were constructed using the calibration standards and used to determine the test sample solubility. The experiment was carried out in duplicate. Diethylstilbestrol, haloperidol and sodium diclofenac were used as reference standards. […]

[5] = Metabolic stability in human liver microsomes; type: in vitro ADME; conditions: 1 µM compound, 0.5 mg/mL pooled human liver microsomes
Method: Metabolic stability study using human liver microsomes
A solution of the test compounds in phosphate buffer solution (1 µM) was incubated in pooled human liver microsomes (0.5 mg/mL) for 0, 5, 20, 30, 45 and 60 minutes at 37 °C in the presence and absence of NADPH regeneration system. The reaction was terminated with the addition of ice-cold acetonitrile containing system suitability standard at designated time points. The sample was centrifuged (4200 rpm) for 20 minutes at 20 °C and the supernatant was half diluted in water and then analysed by means of LC-MS/MS. Compound clearance (CLint,app) was […]
calculated using standard methodology. The experiment was carried out in duplicate.
Verapamil, diltiazem, phenacetin and imipramine were used as reference standards. […]

[6] = Metabolic stability in cryopreserved rat hepatocytes; type: in vitro ADME
Method: Metabolic stability using cryopreserved rat hepatocytes
A solution of the test compound in Krebs-Henseleit buffer solution (1 µM) was incubated in […]
CO2, 95% relative humidity). The reaction was terminated with the addition of ice-cold acetonitrile containing system suitability standard at designated time points. The sample was centrifuged (4200 rpm) for 20 minutes at 20 °C and the supernatant was half diluted in water and then analysed by means of LC-MS/MS. Compound clearance (CLint,app) was calculated using standard methodology. The experiment was carried out in duplicate. Diltiazem, 7-ethoxy coumarin, propranolol and midazolam were used as reference standards. […]

[7] = read-out: Antimalarial activity: XC50
[8] = 1-octanol/PBS (1:1, v/v), pre-saturated, 1-octanol/PBS, pH 7.4, 25 °C, read-out: LogD pH 7.4
[9] = phosphate buffered saline, aqueous buffer, PBS pH 7.4, test compound 200 µM, 2 hours, read-out: kinetic solubility
[10] = pooled cryopreserved rat hepatocytes, 1 µM compound, pooled rat hepatocytes 1×10^6 cells/mL, read-out: rat hepatocytes CLint
[11] = phosphate buffered saline, aqueous buffer, PBS pH 7.4, test compound 200 µM, 2 hours

SMILES: COc1c(C2CCN(CCN3CCC(CNC(=O)c4ccc(-c5ccc(C#N)cc5)cc4)CC3)CC2)ccc2c1CCCC2 [CHEMBL528171]
- IC50 (P. falciparum 3D7 [1]; [7]): 445 nM

SMILES: CC1CCN(Cc2cccc(C(=O)NCc3ccc(F)c(-c4ccc(CN5CCN[C@H](C)C5)cc4)c3)c2)CC1 [CHEMBL580242]
- IC50 (P. falciparum 3D7 [1]; [7]): 1460 nM

SMILES: Oc1cc(CN2CCC(O)(Cn3ccnc3)CC2)nc2c(Cl)cccc12 [CHEMBL3476473]
- IC50 (P. falciparum 3D7 [1]; read-out: Antimalarial activity: inhibition): 882 nM

SMILES: CN1CCC(Oc2ccc(NC(=O)c3cn4ccnc4s3)cn2)CC1 [MMV1797331]
- IC50 (P. falciparum 3D7 [2]): 1900 nM
- IC50 (P. falciparum Dd2; DD2, 72 h): 2000 nM
- IC50 at 72 h (in vitro): 21600 nM
- logD at 2 h, 75 µM [3, 8]: 1
- solubility kinetic at 2 h [4, 9]: ≥ 200 µM
- microsomal CLint at 1 h, 1 µM [5]: 3.7 µL/min/mg
- hepatocyte CLint at 1.5 h, 1 µM [6, 10]: 1.9 µL/min/1e6 cells

SMILES: c1ccc(-c2ccnc(C3CCN(CC45CNCC4C5)CC3)n2)cc1 (centres unmarked) [MMV1797658]
- IC50 (P. falciparum 3D7 [2]): 780 nM
- IC50 (P. falciparum Dd2; DD2, 72 h): 1500 nM
- IC50 at 72 h (in vitro): 22100 nM
- logD at 2 h, 75 µM [3, 8]: 0.5
- solubility kinetic at 2 h [4, 9]: ≥ 200 µM
- microsomal CLint at 1 h, 1 µM [5]: 3.5 µL/min/mg
- hepatocyte CLint at 1.5 h, 1 µM [6, 10]: 7.2 µL/min/1e6 cells

SMILES: CN1CCN(CCCCNC2CC3CCC(C2)N3Cc2ccccc2)CC1 (centres unmarked) [MMV1797951]
- IC50 (P. falciparum 3D7 [2]): 1000 nM
- IC50 (P. falciparum Dd2; P. falciparum Dd2 (drug-resistant), pLDH readout, 72 h): 980 nM
- IC50 at 72 h (in vitro): 13800 nM
- logD at 2 h, 75 µM ([3]; pH 7.4): -0.2
- solubility kinetic at 2 h ([4]; pH 7.4, aqueous buffer): ≥ 200 µM
- microsomal CLint at 1 h, 1 µM [5]: 8.3 µL/min/mg
- hepatocyte CLint at 1.5 h, 1 µM ([6]; rat, hepatocytes): 1.4 µL/min/1e6 cells

SMILES: CC1(N2CCC2)CCC(NCC2CCN(Cc3ccccc3)C2)CC1 (centres unmarked) [MMV1798925]
- IC50 (P. falciparum 3D7 [2]): 1100 nM
- IC50 (P. falciparum Dd2; DD2, 72 h): 1500 nM
- IC50 at 72 h (in vitro): 19100 nM
- logD at 2 h, 75 µM [3, 8]: 0.3
- solubility kinetic at 2 h, 200 µM [4, 11]: 173 µM (≈ 59.1 µg/mL)
- microsomal CLint at 1 h, 1 µM [5]: 3.5 µL/min/mg
- hepatocyte CLint at 1.5 h, 1 µM [6, 10]: 7.2 µL/min/1e6 cells

SMILES: O=C(NC1CCN(CCOc2ccc(Cl)cc2)CC1)c1c[nH]c2ccncc2c1=O [MMV1798946]
- IC50 (P. falciparum 3D7 [2]): 750 nM
- IC50 (P. falciparum Dd2; DD2, 72 h): 2000 nM
- IC50 at 72 h (in vitro): > 25000 nM
- logD ([3]; 1-octanol/PBS (1:1, v/v), pre-saturated, 1-octanol/PBS, pH 7.4, 25 °C): 2.9
- solubility kinetic at 2 h, 200 µM [4, 11]: 170 µM (≈ 72.6 µg/mL)
- microsomal CLint at 1 h, 1 µM [5]: 14 µL/min/mg
- hepatocyte CLint at 1.5 h, 1 µM [6, 10]: 2 µL/min/1e6 cells

SMILES: COc1ccc(-c2cncc(C(=O)NCC3CCN(CCN(C)C)CC3)c2)cc1 [MMV1799348]
- IC50 (P. falciparum 3D7 [2]): 1100 nM
- IC50 (P. falciparum Dd2; DD2, 72 h): 2700 nM
- IC50 at 72 h (in vitro): > 25000 nM
- logD at 2 h, 75 µM [3, 8]: 1.2
- solubility kinetic at 2 h, 200 µM [4, 11]: 198 µM (≈ 78.5 µg/mL)
- microsomal CLint at 1 h, 1 µM [5]: 3.5 µL/min/mg
- hepatocyte CLint at 1.5 h, 1 µM [6, 10]: 1.2 µL/min/1e6 cells

SMILES: Cc1c(CN2CCC(O)(Cn3ccnc3)CC2)[nH]c2c(Cl)cccc12 [MMV1801316]
- IC50 (P. falciparum 3D7 [2]): 1500 nM
- IC50 (P. falciparum Dd2; DD2, 72 h): 3600 nM
- IC50 at 72 h (in vitro): > 25000 nM
- logD at 2 h, 75 µM [3, 8]: 2.8
- solubility kinetic at 2 h, 200 µM [4, 11]: 86 µM (≈ 30.9 µg/mL)
- microsomal CLint at 1 h, 1 µM [5]: 24.1 µL/min/mg
- hepatocyte CLint at 1.5 h, 1 µM [6, 10]: 2.7 µL/min/1e6 cells

SMILES: Cc1cnccc1N1CCCN(Cc2ccccc2OCCN2CCN(C)CC2)CC1 [MMV1802771]
- IC50 (P. falciparum 3D7 [2]): 810 nM
- IC50 (P. falciparum Dd2; DD2, 72 h): 1100 nM
- IC50 at 72 h (in vitro): 20000 nM
- logD at 2 h, 75 µM [3, 8]: 1
- solubility kinetic at 2 h, 200 µM [4, 11]: 100 µM (≈ 42.4 µg/mL)
- microsomal CLint at 1 h, 1 µM [5]: 11 µL/min/mg
- hepatocyte CLint at 1.5 h, 1 µM [6, 10]: 2.6 µL/min/1e6 cells

— publication PMC10726451, “MAIP: An Open-Source Tool to Enrich High-Throughput Screening Output and Identify Novel, Druglike Molecules with Antimalarial Activity” (ACS Medicinal Chemistry Letters, 2023)
